Conditions: for log10 BCF / log10 biotransformation half-life (days): fish

CC(=O)NC(CC(=O)[O-])C(=O)[O-] (centres undefined)
melting point: 138 °C

O=C1c2ccccc2C(=O)c2c(Cl)cccc21
melting point: 163 °C | ready biodegradability: not readily biodegradable | log10 BCF: 2.3 | log10 biotransformation half-life (days): -0.23

O=C=Nc1ccc(Br)cc1
boiling point: 226 °C

CC(C)CC(=O)OCc1ccccc1
boiling point: 245 °C

CCC(C)c1ccc(OCC2CO2)cc1 (centres undefined)
ready biodegradability: not readily biodegradable

O=P1(NCCCl)OCCCN1CCCl (centres undefined)
melting point: 40 °C

C=C(C)c1ccc(C(=C)C)cc1
melting point: 63.5 °C

C#CCC1(OC(N)=O)CCCCC1
melting point: 99 °C

CCCc1cc(C(N)=S)ccn1
melting point: 137 °C

CC1=C(C(=O)O)N2C(=O)[C@@H](NC(=O)[C@H](N)C3=CCC=CC3)[C@H]2SC1
melting point: 140 °C

C=CCOC(=O)OCCOCCOC(=O)OCC=C
melting point: -4 °C | ready biodegradability: readily biodegradable

CCCCCC=CC(C)C
boiling point: 161 °C

OC(Cn1cncn1)(c1ccc(F)cc1)c1ccccc1F (centres undefined)
log10 Koc (L/kg): 1.88 | log10 vapour pressure (mmHg): -10.3 | melting point: 130 °C

CCCc1ccc(O)cc1
boiling point: 233 °C | log10 Henry constant (atm·m³/mol): -5.94 | log10 vapour pressure (mmHg): -1.43 | melting point: 22 °C

CC(=O)c1cc(C)c(C)cc1C
boiling point: 246 °C | melting point: 10.5 °C

COc1cc(C)ccc1O
boiling point: 221 °C | log10 Henry constant (atm·m³/mol): -5.88 | melting point: 5.5 °C

O=C(C(F)(F)F)C(F)(F)Cl
boiling point: 8 °C | log10 vapour pressure (mmHg): 3.15 | melting point: -133 °C

Cn1cnc2c1c(=O)[nH]c(=O)n2C
melting point: 357 °C

CN(C)CCO
boiling point: 134 °C | log10 vapour pressure (mmHg): 0.502 | melting point: -59 °C | ready biodegradability: readily biodegradable

O=C1c2ccccc2C(=O)c2c(O)c(O)cc(O)c21
melting point: 259 °C

CC(=O)Nc1ccc(Br)cc1
log10 Koc (L/kg): 1.95

O=[N+]([O-])c1ccc(Cl)c(Cl)c1
boiling point: 256 °C | log10 Henry constant (atm·m³/mol): -5.09 | log10 Koc (L/kg): 2.53 | log10 vapour pressure (mmHg): -1.99 | melting point: 43 °C | ready biodegradability: not readily biodegradable | log10 BCF: 1.71 | log10 biotransformation half-life (days): -0.27

CCCCCN
boiling point: 104 °C | log10 Henry constant (atm·m³/mol): -4.61 | log10 vapour pressure (mmHg): 1.48 | melting point: -55 °C | ready biodegradability: readily biodegradable

CCOP(=S)(Oc1cnc(C(C)(C)C)nc1)OC(C)C (centres undefined)
log10 vapour pressure (mmHg): -4.43

Cc1c(Cl)cccc1Cl
boiling point: 198 °C | melting point: 25.8 °C | ready biodegradability: not readily biodegradable

C/C=C(/C(=C/C)c1ccc(O)cc1)c1ccc(O)cc1
melting point: 228 °C

N#CCc1cccc(CC#N)c1
melting point: 33.5 °C

O=C(OCCOC(=O)C(Cl)(Cl)Cl)C(Cl)(Cl)Cl
melting point: 40 °C

O=[N+]([O-])c1ccc(Oc2ccc(N=C=S)cc2)cc1
melting point: 110 °C

C=CCNCCC
boiling point: 112 °C

CCOC(OCC)c1ccco1
boiling point: 192 °C

CCC(C)(C)OC(N)=O
melting point: 86 °C

CC(C)(C)I
boiling point: 100 °C | melting point: -38.2 °C

CC=Cc1cccc(OC)c1O
boiling point: 268 °C | melting point: 81 °C

Nc1cccc2cccnc12
melting point: 70 °C

OC[C@H]1OC(O)[C@H](O)[C@@H](O)[C@@H]1O (some centres undefined)
melting point: 133 °C

NC(=O)C1(N2C(=O)c3cccc(Cl)c3C2=O)CCCCC1
melting point: 194 °C

Nc1ccc(S(=O)(=O)Nc2ccccc2)cc1
melting point: 200 °C

CCCCCCCCCCCCS(=O)(=O)O
ready biodegradability: readily biodegradable

CCSCCSP(=O)(OC)OC
log10 Koc (L/kg): 1.49 | log10 vapour pressure (mmHg): -3.52

CCN(N)c1ccccc1
boiling point: 237 °C

Cc1ccc(NC2=NCCN2)c(Cl)c1
melting point: 149 °C

CCCCOC(=O)CC(CC(=O)OCCCC)(OC(C)=O)C(=O)OCCCC
melting point: -80 °C | ready biodegradability: readily biodegradable

CC(Cl)=CCl
log10 vapour pressure (mmHg): 1.96

C#CCC
boiling point: 8 °C | log10 vapour pressure (mmHg): 3.15 | melting point: -126 °C

O=c1[nH]c(=O)n([C@H]2C[C@H](O)[C@@H](CO)O2)cc1F
melting point: 150 °C

COc1cc(OC)cc(O[C@H]2O[C@H](CO)[C@@H](O)[C@H](O)[C@H]2O)c1
melting point: 170 °C

O=C(O)c1ccc([N+](=O)[O-])cc1Cl
melting point: 140 °C

COc1ccc(C(=O)c2ccc(OC)cc2O)c(O)c1
melting point: 140 °C

O=C(O)c1ccccc1O
log10 Koa: 7.44 | log10 vapour pressure (mmHg): -4.09 | melting point: 158 °C | ready biodegradability: readily biodegradable

CCCC#CCCCC
boiling point: 152 °C

c1cc(N(CC2CO2)CC2CO2)ccc1Cc1ccc(N(CC2CO2)CC2CO2)cc1 (centres undefined)
ready biodegradability: not readily biodegradable

CCOCOC(=O)c1ccccc1Nc1c(Cl)ccc(C)c1Cl
melting point: 73.5 °C

O[C@@H](c1ccccc1)[C@@H](O)c1ccccc1
melting point: 138 °C

c1ccc(N2CCOCC2)cc1
melting point: 52.5 °C

CCC1C=CCCC1 (centres undefined)
boiling point: 134 °C

CCOCC1CO1 (centres undefined)
boiling point: 128 °C

Nc1ccc2ccccc2c1N=Nc1ccccc1
melting point: 103 °C

CC1=C(O)C(=O)C(C(C)C)CC1 (centres undefined)
melting point: 83 °C

CCCCCCCOC(=O)CCCCC
boiling point: 261 °C | melting point: -34.4 °C

Oc1ccc2c(c1)[C@@]13CCCC[C@H]1[C@@H](C2)N(CCc1ccccc1)CC3
melting point: 244 °C

C=C
boiling point: -104 °C | log10 Henry constant (atm·m³/mol): -0.642 | log10 Koa: 0.28 | log10 vapour pressure (mmHg): 4.72 | melting point: -169 °C

COC(CC(OC)OC)OC
boiling point: 183 °C

CC(CCl)CCl
boiling point: 136 °C

CCCC(C)=C(C)C
boiling point: 122 °C | log10 vapour pressure (mmHg): 1.26 | melting point: -115 °C

O=C(c1ccccc1)C1CC1
melting point: -7.9 °C

COC(=O)CC(=O)C(C)(C)C
ready biodegradability: not readily biodegradable

COc1ccc([N+](=O)[O-])cn1
melting point: 108 °C

Clc1ccc(Cl)c2ccccc12
log10 BCF: 3.75 | log10 biotransformation half-life (days): 2.37

O=C(O)c1c(Cl)cccc1Cl
melting point: 144 °C | ready biodegradability: not readily biodegradable | log10 BCF: 0.26

C=CCC1(C2C=CCCC2)C(=O)NC(=S)NC1=O (centres undefined)
melting point: 149 °C

OC[C@H]1O[C@H](O[C@H]2O[C@H](CO)[C@@H](O)[C@H](O)[C@H]2O)[C@H](O)[C@@H](O)[C@@H]1O
melting point: 203 °C

COC(=O)c1sccc1N
melting point: 65 °C

c1ccc2c(c1)cc1ccc3cccc4ccc2c1c34
boiling point: 495 °C | log10 Henry constant (atm·m³/mol): -6.34 | log10 Koc (L/kg): 5.95 | log10 biodegradation half-life (days): 2.35 | log10 vapour pressure (mmHg): -8.26 | melting point: 176 °C | log10 biotransformation half-life (days): 0.05

CCCCCBr
boiling point: 130 °C | log10 vapour pressure (mmHg): 1.1 | melting point: -95 °C | ready biodegradability: not readily biodegradable

CCOC(=O)c1ncn2c1CN(C)C(=O)c1cc(F)ccc1-2
melting point: 202 °C

Oc1ccc(Nc2ccc(O)cc2)cc1
melting point: 174 °C

CCOc1ccc(NC(N)=O)cc1
melting point: 174 °C

O=C1Nc2ccc(Br)cc2C1=O
melting point: 250 °C

c1ccc(Nc2ccccn2)nc1
boiling point: 308 °C | melting point: 90.5 °C

CC1CCCCC1O (centres undefined)
boiling point: 164 °C | log10 Henry constant (atm·m³/mol): -5.12

N#Cc1ccnc2ccccc12
boiling point: 242 °C | melting point: 104 °C

C[C@H](F)Cl
boiling point: 16.2 °C

O=C(O)Cc1ccccc1CC(=O)O
melting point: 151 °C

CC(C)CN=C=S
boiling point: 160 °C

Sc1ccc2ccccc2c1
boiling point: 288 °C | melting point: 81 °C | ready biodegradability: not readily biodegradable

CCCNc1ccccc1
boiling point: 222 °C

CCN(CC)CCn1cnc2c1c(=O)n(C)c(=O)n2C
melting point: 75 °C

CC[C@@H](CO)NC(=O)[C@@H]1C=C2c3cccc4[nH]cc(c34)C[C@H]2N(C)C1
melting point: 172 °C

CC(C)CCBr
boiling point: 120 °C | log10 Henry constant (atm·m³/mol): -1.46 | log10 vapour pressure (mmHg): 1.54 | melting point: -112 °C

FC(F)(F)C(F)(F)C(F)(F)C(F)(F)C(F)(F)C(F)(F)C(F)(F)C(F)(F)F
boiling point: 106 °C | melting point: -42 °C

O=Cc1cc(Cl)ccc1Cl
boiling point: 232 °C | melting point: 58 °C

COc1cccc(F)c1
boiling point: 159 °C | melting point: -35 °C

CC1(C)O[C@@H]2C[C@H]3[C@@H]4CCC5=CC(=O)C=C[C@]5(C)[C@H]4[C@@H](O)C[C@]3(C)[C@]2(C(=O)CO)O1
melting point: 274 °C

C1CCC(C(C2CCCCC2)C2CCCCC2)CC1
boiling point: 326 °C | melting point: 48 °C

NC(=O)NC(=O)Cc1ccccc1
melting point: 215 °C

CCC(C)CC(C)N (centres undefined)
boiling point: 132 °C

COc1cc(CC(=O)O)ccc1O
melting point: 144 °C

O=C(Cl)CCCCl
boiling point: 174 °C

COc1ccc(NC(C)=O)cc1
boiling point: 335 °C | log10 Koc (L/kg): 1.4 | melting point: 131 °C

CCC(C)c1ccccc1OC(=O)NC (centres undefined)
log10 Koc (L/kg): 1.71 | log10 vapour pressure (mmHg): -3.85 | melting point: 31.5 °C | ready biodegradability: not readily biodegradable | log10 BCF: 1.41 | log10 biotransformation half-life (days): -0.52

C=CCCCCCCCCCCCCCCCCC
boiling point: 329 °C | log10 vapour pressure (mmHg): -4.42 | melting point: 23 °C

Cc1ccc(/C(=C\CN2CCCC2)c2ccccn2)cc1
melting point: 60 °C

C#CC(C)(CC)OC(=O)c1ccccc1C(=O)O (centres undefined)
melting point: 97 °C

O=COCCCc1ccccc1
boiling point: 250 °C

COc1c(Br)cc(Br)cc1Br
boiling point: 298 °C | melting point: 88 °C

FCOC(F)(F)C(F)F
boiling point: 53.6 °C | log10 vapour pressure (mmHg): 2.37

O=C(O)c1cc2ccccc2[nH]1
melting point: 206 °C

COCCCN
boiling point: 118 °C | ready biodegradability: not readily biodegradable

CCCC(O)CC (centres undefined)
ready biodegradability: not readily biodegradable

CCC(C)(O)C(C)C (centres undefined)
boiling point: 140 °C

CCS
boiling point: 35.1 °C | log10 Henry constant (atm·m³/mol): -2.34 | log10 vapour pressure (mmHg): 2.72 | melting point: -148 °C

Clc1cc2c(Cl)c(Cl)c(Cl)c(Cl)c2c(Cl)c1Cl
log10 vapour pressure (mmHg): -7.07

Clc1ccc(C(c2ccc(Cl)cc2)C(Cl)(Cl)Cl)cc1
log10 Henry constant (atm·m³/mol): -5.08 | log10 Koa: 9.82 | log10 Koc (L/kg): 5.31 | log10 vapour pressure (mmHg): -6.8 | melting point: 108 °C | ready biodegradability: not readily biodegradable | log10 BCF: 4.29 | log10 biotransformation half-life (days): 1.93

Cc1ccc2[nH]c(C)cc2c1
melting point: 115 °C

CC=CC(C)C
boiling point: 58.8 °C | melting point: -130 °C

CC(C)c1ccc2ccccc2c1
boiling point: 268 °C | log10 vapour pressure (mmHg): -2.29 | melting point: 14.5 °C | log10 biotransformation half-life (days): 1

CCOC(=O)C1(c2ccccc2)CCN(CCc2ccc(N)cc2)CC1
melting point: 83 °C

C[Si]1(C)O[Si](C)(C)O[Si](C)(C)O[Si](C)(C)O[Si](C)(C)O[Si](C)(C)O1
boiling point: 245 °C | log10 vapour pressure (mmHg): -1.65 | melting point: -3 °C | log10 biotransformation half-life (days): 2.34

CC1CC(OC(=O)C(O)c2ccccc2)CC(C)(C)N1C (centres undefined)
melting point: 113 °C

O=C(Nc1ccccc1)c1ccccc1O
melting point: 136 °C

N#CCCCCCCCCCCC(=O)O
ready biodegradability: readily biodegradable

CC1(C)CCCCC1=O
boiling point: 172 °C | melting point: -20.5 °C

O=C1CCc2ccccc2O1
boiling point: 272 °C | melting point: 25 °C

Cl.Nc1ccc(N=Nc2ccccc2)c(N)c1
melting point: 118 °C

COc1cc(C=O)ccc1O[C@@H]1O[C@H](CO)[C@@H](O)[C@H](O)[C@H]1O
melting point: 189 °C

O=C(Cl)c1ccco1
boiling point: 173 °C | melting point: -2 °C

— the OPERA property sets (Mansouri et al. 2018)
